Measured values published in PubChem BioAssay (NCI).
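Five compound concentrations were applied to cells in 96-well plates for 48 hours; endpoints were derived by simple linear interpolation of the resulting dose-response curve. GI50 is the concentration that inhibits growth by half. Definition used: TGI = concentration required for complete inhibition of growth.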

Legend:
Experiment in all cases: NCI anticancer screen, dose series, 48 h
[1] = tested on: HS 578T breast
[2] = tested on: SNB-75 CNS
[3] = tested on: T-47D breast
[4] = tested on: UACC-62 melanoma
[5] = tested on: ACHN renal
[6] = tested on: SF-268 CNS
[7] = tested on: MDA-MB-435
[8] = tested on: LOX IMVI melanoma
[9] = tested on: 786-0 renal
[10] = tested on: NCI-H23 lung

SMILES	GI50 [1] [µM]	TGI [1] [µM]	GI50 [2] [µM]	TGI [2] [µM]	GI50 [3] [µM]	TGI [3] [µM]	GI50 [4] [µM]	TGI [4] [µM]	GI50 [5] [µM]	TGI [5] [µM]	GI50 [6] [µM]	TGI [6] [µM]	GI50 [7] [µM]	TGI [7] [µM]	GI50 [8] [µM]	TGI [8] [µM]	GI50 [9] [µM]	TGI [9] [µM]	TGI [10] [µM]	GI50 [10] [µM]
CC1=C(C(=O)Nc2ccc(Cl)c(Cl)c2)C(c2cccc(Oc3ccccc3)c2)NC(=O)N1 (stereo not drawn)	6.72	22.3	15.9	> 50	22.9	> 50	6.27	14.1	6.6	17.3	6.65	17.7	6.33	16.7	4.33	13.8	10.2	20.8		
Cc1cccc(C)c1NC(=O)C(=O)C(C(=O)c1ccccc1-c1ccccc1)C1OC(=O)c2ccccc21 (stereo not drawn)				53.4				36.7		> 100		78.4				45		37	30	
COc1cc(C=O)c(-c2cc(OC)c(OC)cc2C=O)cc1OC				> 100				> 100		> 100		> 100				66		> 100	> 100	
N#CC(C(=O)C(=O)Nc1ccc(Cl)cc1)c1ccccc1 (stereo not drawn)				> 100				77.9		> 100		> 100				> 100		> 100	> 100	
S=c1[nH]c(=S)c2nnn(-c3ccccc3)c2[nH]1				> 100				> 100		> 100		> 100				> 100		> 100	> 100	
Cc1nc([N+](=O)[O-])cn1CC(=N)N				> 100				> 100		> 100		> 100				> 100		> 100	> 100	
Cc1cc(C)c(/C=C2\C(=O)Nc3ccc(NC(=O)CCCCCCC(=O)NO)cc32)[nH]1	2.96	> 100	0.227	> 100			0.407	2.75	6.18	> 100	1.62	> 100	0.44	> 100	0.493	12.9	15.1	> 100	> 100	3.79
CCC1CCc2c(c(=O)oc3c2cc(OC)c2cccc(OC)c23)C1 (stereo not drawn)				> 100				> 100		> 100		> 100						> 100	> 100	
COc1cc2c(OC)cc1CSCc1sc(C)c(c1Br)CSC2				> 100				> 100		> 100		> 100				> 100		> 100	> 100	
COc1cc2c(c(OC)c1OC)-c1ncc3cc4c(cc3c1C2)OCO4	14.7	49.6	79.4	> 100			19.3	> 100	28.8	73.6			13.2	32.6	14.3	34.1	30.2	> 100		
Cc1cc(NS(=O)(=O)c2ccc(Nc3c4ccccc4nc4c(C(=O)N5CCN(CCO)CC5)ccc(Cl)c34)cc2)no1				> 100				> 100				> 100						> 100	> 100	
CCCN1CN(C(C(=O)N[C@@H]2C(=O)N3C2SC(C)(C)C3C(=O)O)c2ccc(O)cc2)CSC1=S (stereo partly drawn)				> 100				> 100		> 100		> 100				> 100		> 100	> 100	
Cc1ccc(C)c(N=C2NC(=O)C(CC(=O)Nc3ccc(Cl)cc3Cl)S2)c1 (stereo not drawn)				> 100				> 100		> 100		> 100				> 100		> 100	> 100	
Cc1cc(S(=O)(=O)O)c(NC(=O)C(=O)Cc2cc(=O)oc3cc(O)ccc23)cc1Cl				> 100				> 100		> 100		> 100				> 100		> 100	> 100	
CCOP(=O)(OCC)OC1C=CC2CCC1C2 (stereo not drawn)				> 100				> 100		> 100		> 100				> 100		> 100	> 100	
O=P1(c2ccccc2)CCCCC1				> 100				> 100		> 100						> 100		> 100	> 100	
CC1(C)CC(=O)C(C=NC(=O)c2ccncc2)=C(O)C1		> 100		> 100				> 100		> 100		> 100		> 100		> 100		> 100	> 100	
COC(=O)/C=C/c1c(CC=C(C)C)ncn1C				56				> 100		> 100		> 100				> 100		> 100	> 100	
